The values below come from the supplement of paper PMC10307832.

Common to all, as to assay: relative viability (nuclei count vs DMSO), 5 days (fraction); higher = more cells survive
Compound in assay [1]: C1=CC=C2C(=C1)N=C(S2)C(C#N)C3=NC(=NC=C3)NCCC4=CN=CC=C4 + CC(=O)c1c(C)c2cnc(Nc3ccc(N4CCNCC4)cn3)nc2n(C2CCCC2)c1=O [Palbociclib] (partner 0.5 µM)
The gist of the method:
(§1)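 After 5 days of treatment, lung cancer cells in 1536-well plates were fixed and stained in a single step (final 0.05% Triton X-100, 1% formaldehyde, 1 ug/ml Hoechst) and their nuclei counted on 4× images. Treatment had been applied by pin tool the day after seeding as one drug alone or as a fixed anchor-drug dose with five library-drug doses (not always all listed) in √10 steps. Relative viability is the nuclei count of treated wells divided by that of vehicle wells, and values are medians of duplicate plates.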

Compound in assay [2]: C1=CC=C2C(=C1)N=C(S2)C(C#N)C3=NC(=NC=C3)NCCC4=CN=CC=C4 + C[C@]1(O)C[C@@H](c2nc(-c3ccc4ccc(-c5ccccc5)nc4c3)c3c(N)nccn32)C1 [Linsitinib] (partner 1 µM)
The gist of the method:
as §1

Compound in assay [3]: COc1cc(N2CCC(N3CCN(C)CC3)CC2)ccc1Nc1ncc(Cl)c(Nc2ccccc2S(=O)(=O)C(C)C)n1 [NVP-TAE684] + Cc1nc(Nc2ncc(C(=O)Nc3c(C)cccc3Cl)s2)cc(N2CCN(CCO)CC2)n1 [Dasatinib] (partner 0.075 µM)
The gist of the method: as §1

Compound in assay [4]: C#Cc1cccc(Nc2ncnc3cc(OC)c(OCCCCCCC(=O)NO)cc23)c1 [CUDC-101] + CC1(C)CCC(c2ccc(Cl)cc2)=C(CN2CCN(c3ccc(C(=O)NS(=O)(=O)c4ccc(N[C@H](CCN5CCOCC5)CSc5ccccc5)c(S(=O)(=O)C(F)(F)F)c4)cc3)CC2)C1 [Navitoclax] (partner 0.5 µM)
The gist of the method:
as §1

NCI-H358: the relative viability in assay [1] (first compound 0.005 µM) turned out to be 0.135; in assay [1] (first compound 0.01581 µM), 0.139; in assay [1] (first compound 0.05 µM), 0.15; in assay [1] (first compound 0.1581 µM) it was 0.141; in assay [1] (first compound 0.5 µM) it was 0.119; in assay [2] (first compound 0.005 µM) it was 0.533. Also, the relative viability in assay [2] (first compound 0.01581 µM) was 0.739; in assay [2] (first compound 0.05 µM), 0.654; in assay [2] (first compound 0.1581 µM) it was 0.722; in assay [2] (first compound 0.5 µM) it was 0.654; in assay [3] (first compound 0.2 µM) it was 0.162; in assay [3] (first compound 0.6325 µM) it was 0.136. Also, the relative viability in assay [3] (first compound 2 µM) is 0.112.
As to NCI-H522, the relative viability was found to be 0.95 in assay [1] (first compound 0.005 µM); 0.958 in assay [1] (first compound 0.01581 µM); 0.96 in assay [1] (first compound 0.05 µM); 0.917 in assay [1] (first compound 0.1581 µM); 1.09 in assay [1] (first compound 0.5 µM); 1.09 in assay [3] (first compound 0.2 µM). Moreover, the relative viability in assay [3] (first compound 0.6325 µM) came out at 0.983; in assay [3] (first compound 2 µM), 0.737.
In the case of NCI-H596, the relative viability in assay [4] (first compound 0.01 µM) stood at 1.06; in assay [4] (first compound 0.03162 µM), 0.825; in assay [4] (first compound 0.1 µM) it was 0.942; in assay [4] (first compound 0.3162 µM), 0.938; in assay [4] (first compound 1 µM), 0.866; in assay [2] (first compound 0.005 µM), 0.921. For the same cell line, the relative viability in assay [2] (first compound 0.01581 µM) worked out at 1.12; in assay [2] (first compound 0.05 µM) it was 1.05; in assay [2] (first compound 0.1581 µM) it was 1.15; in assay [2] (first compound 0.5 µM) it was 0.951; in assay [3] (first compound 0.2 µM), 0.629; in assay [3] (first compound 0.6325 µM), 0.397. Also, the relative viability in assay [3] (first compound 2 µM) came to 0.286.
Consider NCI-H650, for which the relative viability in assay [1] (first compound 0.005 µM) was 0.321; in assay [1] (first compound 0.01581 µM), 0.336; in assay [1] (first compound 0.05 µM), 0.301; in assay [1] (first compound 0.1581 µM) it was 0.321; in assay [1] (first compound 0.5 µM) it was 0.323; in assay [2] (first compound 0.005 µM), 0.838. Further, the relative viability in assay [2] (first compound 0.01581 µM) is 0.578; in assay [2] (first compound 0.05 µM), 0.803; in assay [2] (first compound 0.1581 µM), 1.26; in assay [2] (first compound 0.5 µM) it was 0.984; in assay [3] (first compound 0.2 µM) it was 0.513; in assay [3] (first compound 0.6325 µM), 0.376. Further, the relative viability in assay [3] (first compound 2 µM) worked out at 0.262.
Regarding NCI-H661, the relative viability is 0.428 in assay [1] (first compound 0.005 µM); 0.433 in assay [1] (first compound 0.01581 µM); 0.415 in assay [1] (first compound 0.05 µM); 0.416 in assay [1] (first compound 0.1581 µM); 0.411 in assay [1] (first compound 0.5 µM); 0.509 in assay [2] (first compound 0.005 µM). Further, the relative viability in assay [2] (first compound 0.01581 µM) stood at 0.667; in assay [2] (first compound 0.05 µM), 0.545; in assay [2] (first compound 0.1581 µM), 0.516; in assay [2] (first compound 0.5 µM) it was 0.592; in assay [3] (first compound 0.2 µM) it was 1.09; in assay [3] (first compound 0.6325 µM) it was 0.677. Also, the relative viability in assay [3] (first compound 2 µM) was determined as 0.622.
As to NCI-H1299, the relative viability was 1.05 in assay [4] (first compound 0.01 µM); 0.992 in assay [4] (first compound 0.03162 µM); 1.12 in assay [4] (first compound 0.1 µM); 1.06 in assay [4] (first compound 0.3162 µM); 1.02 in assay [4] (first compound 1 µM); 0.92 in assay [2] (first compound 0.005 µM). For the same cell line, the relative viability in assay [2] (first compound 0.01581 µM) came out at 0.99; in assay [2] (first compound 0.05 µM), 0.744; in assay [2] (first compound 0.1581 µM), 1.07; in assay [2] (first compound 0.5 µM), 0.912.
In the case of NCI-H1563, the relative viability in assay [2] (first compound 0.005 µM) came to 1.27; in assay [2] (first compound 0.01581 µM) it was 1.32; in assay [2] (first compound 0.05 µM), 1.16; in assay [2] (first compound 0.1581 µM) it was 1.2; in assay [2] (first compound 0.5 µM) it was 1.18; in assay [3] (first compound 0.2 µM) it was 0.443. The relative viability in assay [3] (first compound 0.6325 µM) is 0.423; in assay [3] (first compound 2 µM) it was 0.382.
As for NCI-H1623, the relative viability was 0.514 in assay [3] (first compound 0.2 µM), 0.502 in assay [3] (first compound 0.6325 µM) and 0.439 in assay [3] (first compound 2 µM).
With NCI-H1648, the values for the relative viability in assay [1] (first compound 0.01581 µM), in assay [1] (first compound 0.1581 µM) and in assay [1] (first compound 0.5 µM) were 0.294, 0.331 and 0.281, respectively.
In the case of NCI-H1650, the relative viability was 1.22 in assay [4] (first compound 0.01 µM); 0.967 in assay [4] (first compound 0.03162 µM); 1.28 in assay [4] (first compound 0.1 µM); 1.1 in assay [4] (first compound 0.3162 µM); 0.85 in assay [4] (first compound 1 µM); 0.318 in assay [1] (first compound 0.005 µM). Also, the relative viability in assay [1] (first compound 0.01581 µM) came to 0.272; in assay [1] (first compound 0.05 µM) it was 0.336; in assay [1] (first compound 0.1581 µM), 0.395; in assay [1] (first compound 0.5 µM), 0.175; in assay [3] (first compound 0.2 µM), 0.378; in assay [3] (first compound 0.6325 µM) it was 0.19. For the same cell line, in assay [3] (first compound 2 µM), the relative viability was 0.137.
On to NCI-H1703, for which the relative viability in assay [4] (first compound 0.01 µM) came out at 0.968; in assay [4] (first compound 0.1 µM) it was 1.21; in assay [4] (first compound 0.3162 µM), 1.59; in assay [4] (first compound 1 µM), 0.794; in assay [2] (first compound 0.005 µM), 0.547; in assay [2] (first compound 0.01581 µM), 0.711. Also, the relative viability in assay [2] (first compound 0.1581 µM) was found to be 0.718; in assay [2] (first compound 0.5 µM), 0.676.
Consider NCI-H2170, for which the relative viability in assay [4] (first compound 0.01 µM) was 0.628; in assay [4] (first compound 0.03162 µM), 0.636; in assay [4] (first compound 0.1 µM) it was 0.648; in assay [4] (first compound 0.3162 µM) it was 0.599; in assay [4] (first compound 1 µM), 0.313; in assay [1] (first compound 0.005 µM) it was 0.284. Further, the relative viability in assay [1] (first compound 0.01581 µM) was 0.391; in assay [1] (first compound 0.05 µM), 0.38; in assay [1] (first compound 0.1581 µM) it was 0.43; in assay [1] (first compound 0.5 µM), 0.34; in assay [3] (first compound 0.2 µM), 0.588; in assay [3] (first compound 0.6325 µM), 0.477. The relative viability in assay [3] (first compound 2 µM) came to 0.368.
On to NCI-H2342, for which the relative viability in assay [1] (first compound 0.005 µM) worked out at 0.481; in assay [1] (first compound 0.01581 µM) it was 0.513; in assay [1] (first compound 0.05 µM), 0.52; in assay [1] (first compound 0.1581 µM), 0.501; in assay [1] (first compound 0.5 µM), 0.557; in assay [3] (first compound 0.2 µM), 0.297. In addition, the figures for the relative viability in assay [3] (first compound 0.6325 µM) and in assay [3] (first compound 2 µM) were 0.277 and 0.292, respectively.
On to SW 900, for which the relative viability in assay [1] (first compound 0.005 µM) is 0.441; in assay [1] (first compound 0.01581 µM), 0.496; in assay [1] (first compound 0.05 µM), 0.412; in assay [1] (first compound 0.1581 µM), 0.586; in assay [1] (first compound 0.5 µM) it was 0.458; in assay [3] (first compound 0.2 µM) it was 0.739. For the same cell line, the relative viability in assay [3] (first compound 0.6325 µM) was 0.414; in assay [3] (first compound 2 µM), 0.397.
